Experimental data: US12637468B2, “Substituted [1,2,4]triazolo[4,3-b]pyridazines as GABAA receptor modulators” (SHANGHAI SIMR BIOTECHNOLOGY CO., LTD., priority 2019, dated 2026)

biological target: T1, α5-GABAA receptor (Homo sapiens, UniProt P18507+P31644); assay: Cell-level screening: whole cell patch clamp, inverse agonist efficacy on α5-GABAA receptor expressed in HEK293; type: cell-based; details: drug 100 nM, GABA 0.05 μM, HEK293 expressing α5, β3 and γ2 subunits, clamped at −60 mV; read-out: Compound inverse agonist efficacy %
T1 construct: expressed in transfected cells; host or cells: HEK293, monoclonal stably transfected line
Description: The inventors used electrophysiological methods to determine the inverse agonist efficacy of the drugs to be tested on the α5-GABAA receptor. The detailed methods are as follows:
Different subunits of GABAA receptors were expressed in human […] cell line 293 (HEK293) cell line. The cells were cultured in a culture medium and used as a cell model for screening pain inhibiting drugs. The α, β and γ subunits are necessary to form complete functional GABAA receptors. In this embodiment, the inventors had established the following cell model: α5 subunit (see GenBank Accession No. NM_000810.3 for protein sequences), β3 subunit (see GenBank Accession No. NM_000814.5 for protein sequences) and γ2 subunit (see GenBank Accession No. NM_000816.3 for protein sequences) were expressed in HEK293 cell line at the same time, followed by screening the monoclonal cell line. This cell line contained α5-GABAA receptor and had complete GABAA receptor function.
The monoclonal stably transfected HEK-293 cells expressing α5-GABAA receptor were cultured in 10 cm culture dishes and passaged when the cells grew to 80%-90%. During passaging, the culture medium was aspirated first, then 3 mL of DPBS phosphate buffer salt (Gibco™) was added to the culture dishes, and the culture dishes were shaken slightly, and DPBS was aspirated. 1 mL of trypsin (TrypLE Express, Gibco™) was added thereto, and the cells were digested at 37° C. for 1-2 minutes. Then 3 mL of complete medium (DMEM+10% FBS (Gibco™)) was added and the cells at the bottom of the culture dishes were dispersed. The cell suspension were transferred to a 15 mL centrifugal tube (Corning) and then centrifuged at 200 g for 3 minutes. The supernatant was discarded, 4 mL of complete medium was added, and the cells were gently blown and resuspended for use. If cell passaging was performed, the cell suspension was diluted at a ratio of 1:5 or 1:10. If cells for electrophysiology use were prepared, the cell suspension was diluted in a ratio of 1:12, then added into a 24-well dish (Corning™) in which glass slides were placed and pretreated with Poly-D-Lysine, and the cells were tested after being attached to the walls. The culture time of cells for electrophysiology use was no more than 48 hours.
Drug concentration setting: the final drug concentration used in drug screening was 100 nM, and the GABA concentration range was 0.05 μM. The final drug concentrations used in the dose-inversal agonistic efficiency (%) test were 0.3 nM, 3 nM, 10 nM, 30 nM, 100 nM and 300 nM. The whole cell patch clamp technique was used in electrophysiological experiments, which could refer to the literature (I. Lecker, Y. Yin, D. S. Wang and B. A. Orser, (2013) Potentiation of GABAA receptor activity by volatile anaesthetics is reduced by α5-GABAA receptor-preferring inverse agonists, British Journal of Anaesthesia 110 (S1): i73-i81). The components of extracellular solution (ECS) for electrophysiology use were as follows: 150 mM NaCl, 5 mM KCl, 2.5 mM CaCl2), 1 mM MgCl2, 10 mM HEPES and 10 mM glucose (pH 7.4); electrode internal solutions for electrophysiology use were as follows: 140 mM CsCl, 11 mM EGTA, 10 mM HEPES, 2 mM CaCl2), 1 mM MgCl2, 4 mM MgATP, 2 mM TEA (pH 7.3). The signal acquisition used an EPC-10 amplifier and the PatchMaster software (HEKA). The recording electrode was drawn using borosilicate glass, and the electrode resistance was 4 to 6 MΩ. The ALA-VC3-8PP™ system was used for extracellular administration. Separate cells that grew independently was selected for recording. During recording, the cell membrane potential was clamped at −60 mV. During experiment, an extracellular solution was applied to the cells for about 20 seconds. When the baseline reached to a stable state, the extracellular solution was switched to GABA. Then the current induced by GABA could be detected. […]

T1 sequence (P31644 32-462): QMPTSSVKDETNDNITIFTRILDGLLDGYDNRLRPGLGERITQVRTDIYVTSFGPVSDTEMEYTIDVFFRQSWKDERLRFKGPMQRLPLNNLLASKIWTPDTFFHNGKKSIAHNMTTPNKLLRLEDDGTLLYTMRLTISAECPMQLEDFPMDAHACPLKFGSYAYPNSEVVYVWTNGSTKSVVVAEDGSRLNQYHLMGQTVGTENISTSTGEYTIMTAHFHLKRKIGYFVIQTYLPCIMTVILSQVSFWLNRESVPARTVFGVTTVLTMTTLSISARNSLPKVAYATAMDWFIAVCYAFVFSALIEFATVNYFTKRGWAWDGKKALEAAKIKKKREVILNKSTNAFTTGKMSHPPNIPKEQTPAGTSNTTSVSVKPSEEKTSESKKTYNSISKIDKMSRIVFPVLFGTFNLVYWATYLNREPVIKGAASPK
T1 sequence (P28472 26-473 partner): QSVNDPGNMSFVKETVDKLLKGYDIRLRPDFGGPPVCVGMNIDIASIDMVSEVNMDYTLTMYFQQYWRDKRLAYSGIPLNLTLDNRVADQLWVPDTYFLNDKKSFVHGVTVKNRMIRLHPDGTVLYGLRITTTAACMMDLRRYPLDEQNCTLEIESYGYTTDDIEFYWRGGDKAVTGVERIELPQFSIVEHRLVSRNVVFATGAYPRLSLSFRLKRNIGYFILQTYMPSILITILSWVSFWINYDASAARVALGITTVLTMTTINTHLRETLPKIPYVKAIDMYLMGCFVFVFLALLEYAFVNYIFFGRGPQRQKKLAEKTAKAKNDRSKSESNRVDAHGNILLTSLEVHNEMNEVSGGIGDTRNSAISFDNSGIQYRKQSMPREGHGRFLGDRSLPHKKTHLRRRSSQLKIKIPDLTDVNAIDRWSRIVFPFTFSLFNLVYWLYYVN
T1 sequence (P18507 40-467 isoform P18507-1 limits assumed): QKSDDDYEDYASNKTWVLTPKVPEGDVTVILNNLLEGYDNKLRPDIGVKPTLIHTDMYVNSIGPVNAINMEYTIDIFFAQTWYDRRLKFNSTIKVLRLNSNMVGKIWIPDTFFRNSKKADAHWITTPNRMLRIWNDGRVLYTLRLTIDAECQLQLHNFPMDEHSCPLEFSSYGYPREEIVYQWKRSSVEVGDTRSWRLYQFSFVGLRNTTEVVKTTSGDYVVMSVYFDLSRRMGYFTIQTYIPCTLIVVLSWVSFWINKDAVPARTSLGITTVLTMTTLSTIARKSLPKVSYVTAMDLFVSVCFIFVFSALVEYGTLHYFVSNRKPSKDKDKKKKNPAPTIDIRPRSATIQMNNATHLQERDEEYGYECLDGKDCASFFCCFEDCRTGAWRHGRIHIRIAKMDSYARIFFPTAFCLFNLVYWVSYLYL

inhibition at 0.1 µM | Structure (SMILES)
47.2% | COc1cc2nnc(-c3cc(C)on3)n2nc1OCc1ccc2c(n1)CNC2=O [Embodiment 89]
36.5% | COCCCn1ccc2ccc(COc3nn4c(-c5cc(C)on5)nnc4cc3OC)nc21 [Embodiment 93]
57.3% | COCCOc1ccc(COc2nn3c(-c4noc(C)n4)nnc3cc2OC)nc1 [Embodiment 132]
38.8% | COc1cc2nnc(-c3cc(C)on3)n2nc1OCc1ccc(C2CCNC2)cn1 (stereo not drawn) [Embodiment 96]
46.2% | COc1ccnc(COc2nn3c(-c4cc(C)on4)nnc3cc2OC)c1 [Embodiment 51]
50.2% | COc1cc2nnc(-c3cc(C)on3)n2nc1OCc1ccc2c(n1)CCN(C)C2=O [Embodiment 142]
45.9% | COc1cc2nnc(-c3cc(C)on3)n2nc1OCc1ccc2c(n1)CCN(C(=O)C1CC1)C2 [Embodiment 81]
74.4% | COc1cc2nnc(-c3cc(C)on3)n2nc1OCc1ccc2nn(Cc3cc(C)on3)cc2n1 [Embodiment 225]
55.4% | COc1cc2nnc(-c3cc(C)on3)n2nc1OCc1ccnc2ccnn12 [Embodiment 65]
59% | COc1cc2nnc(-c3cc(C)on3)n2nc1OCc1ccc2c(n1)CCN([C@H]1CCOC1)C2 (single isomer, unassigned) [Embodiment 181]
41.7% | COCCOc1ccc(COc2nn3c(-c4cc(C)on4)nnc3cc2OC)nn1 [Embodiment 26]
31.1% | COc1cc2nnc(-c3cc(C)on3)n2nc1OCc1cccc(C)n1 [Embodiment 16]
47.4% | COc1cc2nnc(-c3cc(C)on3)n2nc1OCc1ccc2c(ccn2C2COC2)n1 [Embodiment 250]
44.9% | COc1cc2nnc(-c3cc(C)on3)n2nc1OCc1ccc(C2CCNCC2)cn1 [Embodiment 116]
46.8% | COc1cc2nnc(-c3cc(C)on3)n2nc1OCc1cnc(OC2COC2)cn1 [Embodiment 157]
50.1% | COCCCOc1nnc(COc2nn3c(-c4cc(C)on4)nnc3cc2OC)cc1C [Embodiment 155]
75.1% | CCn1nc2ccc(COc3nn4c(-c5cc(C)on5)nnc4cc3OC)nc2c1C [Embodiment 244]
39.3% | CCNC(=O)c1ccc(COc2nn3c(-c4cc(C)on4)nnc3cc2OC)nc1 [Embodiment 35]

Further lines, the compound ahead of its results:

Structure (SMILES) | inhibition at 0.1 µM
COc1cc2nnc(-c3cc(C)on3)n2nc1OCc1ccc(C2CCC2)cn1 [Embodiment 56] | 21.6%
COc1cc2nnc(-c3cc(C)on3)n2nc1OCc1cccc(C#N)n1 [Embodiment 40] | 39%
COc1cc2nnc(-c3cc(C)on3)n2nc1OCc1ccc2c(n1)CCN(C(=O)CC#N)C2 [Embodiment 143] | 49.6%
COc1cc2nnc(-c3cc(C)on3)n2nc1OCc1ccc2nn(C(C)C)cc2n1 [Embodiment 235] | 43.5%
COc1cc2nnc(-c3cc(C)on3)n2nc1OCc1ccc2c(n1)CCN(C1CC(C#N)C1)C2 (stereo not drawn) [Embodiment 195] | 45.8%
COc1cc2nnc(-c3cc(C)on3)n2nc1OCc1ccc2ccccc2n1 [Embodiment 138] | 42.9%
COc1cc2nnc(-c3cc(C)on3)n2nc1OCc1ccc(C2=CCCCC2)cn1 [Embodiment 13] | 29%
COc1cc2nnc(-c3cc(C)on3)n2nc1OCc1ccc2c(n1)CCN(C(=O)c1ccccc1)C2 [Embodiment 131] | 52.2%
COc1cc2nnc(-c3cc(C)on3)n2nc1OCc1ccc2c(cnn2C2COC2)n1 [Embodiment 227] | 61.5%
COc1cc2nnc(-c3cc(C)on3)n2nc1OCc1ccc2c(n1)CCN(c1cc(C)on1)C2 [Embodiment 191] | 44%
COc1cc2nnc(-c3cc(C)on3)n2nc1OCc1ccc2c(n1)CCN(CC13CC(C#N)(C1)C3)C2 [Embodiment 194] | 41.5%
COCCCOc1cnc(COc2nn3c(-c4cc(C)on4)nnc3cc2OC)cn1 [Embodiment 86] | 41.8%
COc1cccc(COc2nn3c(-c4cc(C)on4)nnc3cc2OC)n1 [Embodiment 38] | 32%
COc1cc2nnc(-c3cc(C)on3)n2nc1OCc1ccc(OCCCC#N)nn1 [Embodiment 27] | 42%
COc1cc2nnc(-c3cc(C)on3)n2nc1OCc1ncccc1C#N [Embodiment 30] | 29.4%
COc1cc2nnc(-c3cc(C)on3)n2nc1OCc1cccn(C)c1=O [Embodiment 74] | 40.4%
C=CC(=O)N1CCc2nc(COc3nn4c(-c5cc(C)on5)nnc4cc3OC)ccc2C1 [Embodiment 108, 1-(2-(((7-Methoxy-3-(5-methylisoxazol-3-yl)-[1,2,4]triazolo[4,3-b]pyridazin-6-yl)oxy)methyl)-7,8-dihydro-1,6-naphthyridin-6(5H)-yl)prop-2-en-1-one] | 54.9%

Structure (SMILES) | inhibition at 0.1 µM
COc1cc2nnc(-c3cc(C)on3)n2nc1OCc1cnc(OCC2CCCO2)cn1 (stereo not drawn) [Embodiment 178] | 36.7%
COc1cc2nnc(-c3cc(C)on3)n2nc1OCc1ccc(C(F)(F)F)cn1 [Embodiment 59] | 35.7%
COc1cc2nnc(-c3cc(C)on3)n2nc1OCc1cccc(F)n1 [Embodiment 4] | 40.8%
COCC(C)(C)N1CCc2nc(COc3nn4c(-c5cc(C)on5)nnc4cc3OC)ccc2C1 [Embodiment 190] | 38.3%
COc1cc2nnc(-c3cc(C)on3)n2nc1OCc1ccc2c(n1)CCN(CCC#N)C2=O [Embodiment 91] | 47.8%
COc1cc2nnc(-c3cc(C)on3)n2nc1OCc1ccc2c(n1)CCN(S(=O)(=O)N(C)C)C2 [Embodiment 205, 2-(((7-Methoxy-3-(5-methylisoxazol-3-yl)-[1,2,4]triazolo[4,3-b]pyridazin-6-yl)oxy)methyl)-N,N-dimethyl-7,8-dihydro-1,6-naphthyridine-6(5H)-sulfonamide] | 52.5%
COc1cc2nnc(-c3cc(C)on3)n2nc1OCc1ccc2c(ncn2C)n1 [Embodiment 118] | 63.7%
COc1cc2nnc(-c3cc(C)on3)n2nc1OCc1ccc2c(n1)CNC2 [Embodiment 98] | 38%
COc1cc2nnc(-c3cc(C)on3)n2nc1OCc1ncccc1Cl [Embodiment 17] | 47.7%
COc1cc2nnc(-c3cc(C)on3)n2nc1OCc1cccc(C2CCNC2)n1 (stereo not drawn) [Embodiment 123] | 36.7%
COc1cc2nnc(-c3cc(C)on3)n2nc1OCc1ccc2c(cnn2CCC#N)n1 [Embodiment 228] | 44.7%
COc1cc2nnc(-c3cc(C)on3)n2nc1OCc1ccc(OCC2CCCO2)nn1 (stereo not drawn) [Embodiment 165] | 49.8%
CCOC(=O)N1CCc2nc(COc3nn4c(-c5cc(C)on5)nnc4cc3OC)ccc2C1 [Embodiment 111, Ethyl 2-(((7-methoxy-3-(5-methylisoxazol-3-yl)-[1,2,4]triazolo[4,3-b]pyridazin-6-yl)oxy)methyl)7,8-dihydro-1,6-naphthyridine-6(5H)-carboxylate] | 59.6%
COc1cc2nnc(-c3cc(C)on3)n2nc1OCc1cccc(C2(F)CCNC2)n1 (stereo not drawn) [Embodiment 125] | 41.8%
COc1cc2nnc(-c3cc(C)on3)n2nc1OCc1ccc2cnccc2n1 [Embodiment 140] | 49.3%
Cc1cc(-c2nnc3cc(OC(F)F)c(OCc4ccccn4)nn23)no1 [Embodiment 54] | 43.5%
